{
  "source": "the supplement of paper PMC10307832",
  "assay_in_all_cases": "relative viability (nuclei count vs DMSO), 5 days (fraction); higher = more cells survive",
  "key": {"[1]": {"compound": "CC[C@@H](C)CNCC(=O)N1CCC2=C([C@@H]1COC3=CC=CC(=C3)C)C=CS2 [RU-SKI 43] + CC(=O)c1c(C)c2cnc(Nc3ccc(N4CCNCC4)cn3)nc2n(C2CCCC2)c1=O [Palbociclib] (partner 0.5 µM)", "method_in_brief": "(§1)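 Lung cancer cell lines, seeded in 1536-well plates, were treated the following day by pin tool with a single drug or with five library-drug doses (not always all listed) in √10 steps on top of a fixed anchor-drug dose. Cells were fixed and nuclei stained in one step after 5 days, and nuclei were counted. Relative viability is the nuclei count for treated wells divided by that for vehicle wells, reported as medians of duplicate plates.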"}, "[2]": {"compound": "CC[C@@H](C)CNCC(=O)N1CCC2=C([C@@H]1COC3=CC=CC(=C3)C)C=CS2 [RU-SKI 43] + CS(=O)(=O)CCNCc1ccc(-c2ccc3ncnc(Nc4ccc(OCc5cccc(F)c5)c(Cl)c4)c3c2)o1 [Lapatinib] (partner 2 µM)", "method_in_brief": "as §1"}, "[3]": {"compound": "CC[C@@H](C)CNCC(=O)N1CCC2=C([C@@H]1COC3=CC=CC(=C3)C)C=CS2 [RU-SKI 43] + Nc1ncn([C@H]2C[C@H](O)[C@@H](CO)O2)c(=O)n1 [Decitabine] (partner 2 µM)", "method_in_brief": "as §1"}, "[4]": {"compound": "Cn1cc(-c2cnc3ccc4ccc(CS(=O)(=O)NCc5ccccn5)cc4c(=O)c3c2)cn1 [MK-8033] + COc1cccc2cc(-c3nc([C@H]4CC[C@H](C(=O)O)CC4)n4ncnc(N)c34)[nH]c12 [OSI-027] (partner 0.5 µM)", "method_in_brief": "as §1"}},
  "data": [
    {"cell line": "UMC-11", "values": [
      {"measurement": "relative viability", "setting": "[1]; first compound 0.1 µM", "value": 0.317},
      {"measurement": "relative viability", "setting": "[1]; first compound 0.3162 µM", "value": 0.31},
      {"measurement": "relative viability", "setting": "[1]; first compound 1 µM", "value": 0.351},
      {"measurement": "relative viability", "setting": "[1]; first compound 3.162 µM", "value": 0.314},
      {"measurement": "relative viability", "setting": "[1]; first compound 10 µM", "value": 0.323},
      {"measurement": "relative viability", "setting": "[2]; first compound 0.1 µM", "value": 1.05},
      {"measurement": "relative viability", "setting": "[2]; first compound 0.3162 µM", "value": 1.01},
      {"measurement": "relative viability", "setting": "[2]; first compound 1 µM", "value": 1.48},
      {"measurement": "relative viability", "setting": "[2]; first compound 3.162 µM", "value": 0.918},
      {"measurement": "relative viability", "setting": "[2]; first compound 10 µM", "value": 0.764},
      {"measurement": "relative viability", "setting": "[3]; first compound 0.1 µM", "value": 0.668},
      {"measurement": "relative viability", "setting": "[3]; first compound 0.3162 µM", "value": 0.614},
      {"measurement": "relative viability", "setting": "[3]; first compound 1 µM", "value": 0.675},
      {"measurement": "relative viability", "setting": "[3]; first compound 3.162 µM", "value": 0.619},
      {"measurement": "relative viability", "setting": "[3]; first compound 10 µM", "value": 0.64},
      {"measurement": "relative viability", "setting": "[4]; first compound 0.02 µM", "value": 0.483},
      {"measurement": "relative viability", "setting": "[4]; first compound 0.06325 µM", "value": 0.447},
      {"measurement": "relative viability", "setting": "[4]; first compound 0.2 µM", "value": 0.381},
      {"measurement": "relative viability", "setting": "[4]; first compound 2 µM", "value": 0.457}
    ]}
  ]
}
